Active and inactive are the calls of the source.
Experiments:
Klebsiella aerogenes = assay: Antimicrobial activity against Enterobacter aerogenes by broth dilution method; type: functional
Citrobacter freundii = assay: Antimicrobial activity against Citrobacter freundii by broth dilution method; type: functional
Providencia stuartii = assay: Antimicrobial activity against Providencia stuartii by broth dilution method; type: functional
Proteus vulgaris = assay: Antimicrobial activity against Proteus vulgaris by broth dilution method; type: functional
Providencia rettgeri [1] = assay: Antimicrobial activity against Providencia rettgeri by broth dilution method; type: functional
Enterobacter cloacae [2] = assay: Antimicrobial activity against Enterobacter cloacae by broth dilution method; type: functional
Escherichia coli [3] = assay: Antimicrobial activity against Escherichia coli by broth dilution method; type: functional
Klebsiella oxytoca [4] = assay: Antimicrobial activity against Klebsiella oxytoca by broth dilution method; type: functional
Klebsiella pneumoniae [5] = assay: Antimicrobial activity against Klebsiella pneumoniae by broth dilution method; type: functional
Proteus penneri = assay: Antimicrobial activity against Proteus penneri by broth dilution method; type: functional
Proteus mirabilis = assay: Antimicrobial activity against Proteus mirabilis by broth dilution method; type: functional
Serratia marcescens [6] = assay: Antimicrobial activity against Serratia marcescens by broth dilution method; type: functional
Acinetobacter sp. = assay: Antimicrobial activity against Acinetobacter sp. by broth dilution method; type: functional
Burkholderia sp. = assay: Antimicrobial activity against Burkholderia sp. by broth dilution method; type: functional
[7] = tested on: Stenotrophomonas maltophilia; assay: Antimicrobial activity against Stenotrophomonas maltophilia by broth dilution method; type: functional
Pseudomonas aeruginosa [8] = assay: Antimicrobial activity against Pseudomonas aeruginosa by broth dilution method; type: functional
Pseudomonas aeruginosa [9] = assay: Antimicrobial activity against Pseudomonas aeruginosa B4 by broth dilution method; type: functional
Pseudomonas aeruginosa [10] = assay: Antimicrobial activity against oprD protein deficient Pseudomonas aeruginosa C2 by broth dilution method; type: functional
Pseudomonas aeruginosa [11] = assay: Antimicrobial activity against mexAB-oprM protein and mexCD-oprJ deficient Pseudomonas aeruginosa PAO238 by broth dilution method; type: functional
Pseudomonas aeruginosa [12] = assay: Antimicrobial activity against mexAB-oprM protein and mexCD-oprJ deficient Pseudomonas aeruginosa PAO253 overexpressing MexEF-OprN gene by broth dilution method; type: functional
Pseudomonas aeruginosa [13] = assay: Antimicrobial activity against mexAB-oprM protein and mexZ deficient Pseudomonas aeruginosa PAO267 by broth dilution method; type: functional
Pseudomonas aeruginosa [14] = assay: Antimicrobial activity against mexAB-oprM, mexCD-oprJ, mexEF-oprN, mexJK, mexXY, opmH and pscC gene deficient Pseudomonas aeruginosa PAO750 by broth dilution method; type: functional
Pseudomonas aeruginosa [15] = assay: Antimicrobial activity against Pseudomonas aeruginosa BA(C2-107) selected after 25 ug/ml of compound exposure by broth dilution method; type: functional
Pseudomonas aeruginosa [16] = assay: Antimicrobial activity against Pseudomonas aeruginosa BA(C1-106) selected after 25 ug/ml of compound exposure by broth dilution method; type: functional
Pseudomonas aeruginosa [17] = assay: Antimicrobial activity against Pseudomonas aeruginosa BA by broth dilution method; type: functional; details: Pseudomonas aeruginosa, BA; read-out: MIC
Pseudomonas aeruginosa [18] = assay: microbe, parasite or virus in culture; details: PAO1
Description: Antimicrobial activity against Pseudomonas aeruginosa PAO1 by broth dilution method

Escherichia coli [19] = assay: Antimicrobial activity against Escherichia coli HB101 harboring beta-lactamase TEM-5 by broth dilution method; type: functional
Escherichia coli [20] = assay: Antimicrobial activity against Escherichia coli K802N harboring beta-lactamase TEM-3 by broth dilution method; type: functional
Escherichia coli [21] = assay: Antimicrobial activity against Escherichia coli CF102 harboring beta-lactamase TEM-3 by broth dilution method; type: functional
Klebsiella pneumoniae [22] = assay: Antimicrobial activity against Klebsiella pneumoniae 1357E harboring beta-lactamase TEM-10 by broth dilution method; type: functional
Escherichia coli [23] = assay: Antimicrobial activity against Escherichia coli A harboring beta-lactamase CTX-M 15 by broth dilution method; type: functional
Klebsiella pneumoniae [24] = assay: Antimicrobial activity against Klebsiella pneumoniae 26768WU harboring beta-lactamase SHV-5 by broth dilution method; type: functional
Klebsiella oxytoca [25] = assay: Antimicrobial activity against Klebsiella oxytoca 1028E harboring beta-lactamase K1 by broth dilution method; type: functional
Pseudomonas aeruginosa [26] = assay: Antimicrobial activity against Pseudomonas aeruginosa 1973E harboring beta-lactamase PSE-1 and class C enzymes by broth dilution method; type: functional
Pseudomonas aeruginosa [27] = assay: Antimicrobial activity against Pseudomonas aeruginosa 1937E harboring beta-lactamase PSE-4 and class C enzymes by broth dilution method; type: functional
Serratia marcescens [28] = assay: Antimicrobial activity against Serratia marcescens S6 harboring beta-lactamase SME-1.AmpC by broth dilution method; type: functional
Escherichia coli [29] = assay: Antimicrobial activity against Escherichia coli nmcA harboring beta-lactamase NMCA by broth dilution method; type: functional
Klebsiella pneumoniae [30] = assay: Antimicrobial activity against Klebsiella pneumoniae CRE harboring beta-lactamase KPC-2 by broth dilution method; type: functional
Klebsiella pneumoniae [31] = assay: Antimicrobial activity against Klebsiella pneumoniae YC harboring beta-lactamase KPC-2,TEM-1and SHV-2 by broth dilution method; type: functional
Acinetobacter baumannii [32] = assay: Antimicrobial activity against Acinetobacter baumannii HPA74510 harboring beta-lactamase IMP-4 by broth dilution method; type: functional
Pseudomonas aeruginosa [33] = assay: Antimicrobial activity against Pseudomonas aeruginosa HPA101-1477 harboring beta-lactamase IMP-1 by broth dilution method; type: functional
Pseudomonas aeruginosa [34] = assay: Antimicrobial activity against Pseudomonas aeruginosa HPA10586 harboring beta-lactamase VIM-1 by broth dilution method; type: functional
Pseudomonas aeruginosa [35] = assay: Antimicrobial activity against Pseudomonas aeruginosa HPA996 harboring beta-lactamase VIM-2 by broth dilution method; type: functional
Providencia rettgeri [36] = assay: Antimicrobial activity against Providencia rettgeri J96 harboring beta-lactamase IMP-1 by broth dilution method; type: functional
[37] = tested on: Stenotrophomonas maltophilia; assay: Antimicrobial activity against Stenotrophomonas maltophilia B715 harboring beta-lactamase L1and L2 by broth dilution method; type: functional
Enterobacter cloacae [38] = assay: Antimicrobial activity against Enterobacter cloacae 908R harboring beta-lactamase AmpC by broth dilution method; type: functional
Escherichia coli [39] = assay: Antimicrobial activity against Escherichia coli Libyien harboring beta-lactamase CMY-2 by broth dilution method; type: functional
Acinetobacter baumannii [40] = assay: Antimicrobial activity against Acinetobacter baumannii HPA 4737 harboring beta-lactamase OXA-26 by broth dilution method; type: functional
Acinetobacter baumannii [41] = assay: Antimicrobial activity against Acinetobacter baumannii HPA I-16 harboring beta-lactamase OXA-27 by broth dilution method; type: functional
Acinetobacter baumannii [42] = assay: Antimicrobial activity against Acinetobacter baumannii HPA74510 assessed as number of passages required for MIC to rise above 4 times original MIC; type: functional
Acinetobacter junii = assay: Antimicrobial activity against Acinetobacter junii 15218 assessed as number of passages required for MIC to rise above 4 times original MIC; type: functional
Enterobacter cloacae [43] = assay: Antimicrobial activity against Enterobacter cloacae S4741B assessed as number of passages required for MIC to rise above 4 times original MIC; type: functional
Enterobacter cloacae [44] = assay: Antimicrobial activity against Enterobacter cloacae S9369 assessed as number of passages required for MIC to rise above 4 times original MIC; type: functional
Klebsiella pneumoniae [45] = assay: Antimicrobial activity against Klebsiella pneumoniae 1338665 assessed as number of passages required for MIC to rise above 4 times original MIC; type: functional
Pseudomonas aeruginosa [46] = assay: Antimicrobial activity against Pseudomonas aeruginosa BA assessed as number of passages required for MIC to rise above 4 times original MIC; type: functional
Pseudomonas aeruginosa [47] = assay: Antimicrobial activity against Pseudomonas aeruginosa 527 assessed as number of passages required for MIC to rise above 4 times original MIC; type: functional
Pseudomonas aeruginosa [48] = assay: Antimicrobial activity against Pseudomonas aeruginosa 621 assessed as number of passages required for MIC to rise above 4 times original MIC; type: functional
[49] = tested on: Stenotrophomonas maltophilia; assay: Antimicrobial activity against Stenotrophomonas maltophilia 1AC736 assessed as number of passages required for MIC to rise above 4 times original MIC; type: functional
Serratia marcescens [50] = assay: Antimicrobial activity against Serratia marcescens 1T9 harboring beta-lactamase Class C by broth dilution method; type: functional
Acinetobacter baumannii [51] = assay: Antimicrobial activity against Acinetobacter baumannii HPA 327009 harboring beta-lactamase OXA-25 by broth dilution method; type: functional
Pseudomonas aeruginosa [52] = assay: microbe, parasite or virus in culture; details: BA
Description: Antimicrobial activity against Pseudomonas aeruginosa BA harboring beta-lactamase Class C by broth dilution method

Pseudomonas aeruginosa [53] = assay: microbe, parasite or virus in culture; details: 18S/H
Description: Antimicrobial activity against Pseudomonas aeruginosa 18S/H harboring beta-lactamase Class C by broth dilution method

CC(C)(O/N=C(\C(=O)N[C@@H]1C(=O)N2C(C(=O)[O-])=C(C[n+]3ccccc3)CS[C@H]12)c1csc(N)n1)C(=O)O [CEFTAZIDIME]
2 µg/mL: MIC90 (Serratia marcescens [6]) | MIC50 (Burkholderia sp.) | MIC50 [7] | MIC (Pseudomonas aeruginosa [10]) | MIC (Pseudomonas aeruginosa [15]) | MIC (Pseudomonas aeruginosa [17])
16 µg/mL: MIC50 (Enterobacter cloacae [2]) | MIC90 [7] | MIC50 (Pseudomonas aeruginosa [8]) | MIC (Pseudomonas aeruginosa [16])
≤ 0.06 µg/mL: MIC (Proteus vulgaris) | MIC50 (Proteus vulgaris) | MIC (Proteus penneri) | MIC50 (Proteus penneri) | MIC (Proteus mirabilis) | MIC50 (Proteus mirabilis)
8 µg/mL: MIC90 (Klebsiella oxytoca [4]) | MIC90 (Burkholderia sp.)
4 µg/mL: MIC (Pseudomonas aeruginosa [9])
1 µg/mL: MIC50 (Providencia stuartii) | MIC50 (Providencia rettgeri [1]) | MIC50 (Klebsiella oxytoca [4]) | MIC50 (Serratia marcescens [6]) | MIC (Pseudomonas aeruginosa [18])
0.25 µg/mL: MIC90 (Proteus vulgaris) | MIC90 (Proteus penneri) | MIC90 (Proteus mirabilis) | MIC (Pseudomonas aeruginosa [12])
> 32 µg/mL: MIC50 (Klebsiella aerogenes) | MIC90 (Klebsiella aerogenes) | MIC (Citrobacter freundii) | MIC50 (Citrobacter freundii) | MIC90 (Citrobacter freundii) | MIC90 (Providencia stuartii) | MIC90 (Providencia rettgeri [1]) | MIC90 (Enterobacter cloacae [2]) | MIC90 (Escherichia coli [3]) | MIC50 (Klebsiella pneumoniae [5]) | MIC90 (Klebsiella pneumoniae [5]) | MIC90 (Acinetobacter sp.) | MIC90 (Pseudomonas aeruginosa [8])
0.5 µg/mL: MIC (Pseudomonas aeruginosa [11]) | MIC (Pseudomonas aeruginosa [13]) | MIC (Pseudomonas aeruginosa [14])
32 µg/mL: MIC50 (Escherichia coli [3]) | MIC50 (Acinetobacter sp.)

C[C@@H](O)[C@H]1C(=O)N2C(C(=O)O)=C(SCCNC=N)C[C@H]12 [IMIPENEM ANHYDROUS]
0.25 µg/mL: MIC50 (Escherichia coli [3]) | MIC50 (Klebsiella oxytoca [4]) | MIC50 (Acinetobacter sp.) | MIC (Escherichia coli [19]) | MIC (Escherichia coli [23])
4 µg/mL: MIC50 (Providencia stuartii) | MIC50 (Proteus vulgaris) | MIC50 (Providencia rettgeri [1]) | MIC90 (Enterobacter cloacae [2]) | MIC50 (Proteus penneri) | MIC50 (Proteus mirabilis) | MIC50 (Pseudomonas aeruginosa [8]) | MIC (Pseudomonas aeruginosa [12]) | MIC (Pseudomonas aeruginosa [53])
inactive: Activity (Pseudomonas aeruginosa [47]) | Activity (Pseudomonas aeruginosa [48]) | Activity [49]
8 µg/mL: MIC90 (Proteus vulgaris) | MIC90 (Proteus penneri) | MIC90 (Proteus mirabilis) | MIC90 (Serratia marcescens [6])
> 32 µg/mL: MIC90 (Burkholderia sp.) | MIC [7] | MIC50 [7] | MIC90 [7] | MIC90 (Pseudomonas aeruginosa [8]) | MIC (Serratia marcescens [28]) | MIC (Escherichia coli [29]) | MIC (Klebsiella pneumoniae [30]) | MIC (Klebsiella pneumoniae [31]) | MIC (Pseudomonas aeruginosa [33]) | MIC (Pseudomonas aeruginosa [34]) | MIC (Pseudomonas aeruginosa [35]) | MIC (Providencia rettgeri [36]) | MIC [37] | MIC (Acinetobacter baumannii [40]) | MIC (Acinetobacter baumannii [41]) | MIC (Acinetobacter baumannii [51])
16 µg/mL: MIC90 (Klebsiella aerogenes) | MIC90 (Providencia stuartii) | MIC90 (Providencia rettgeri [1]) | MIC90 (Klebsiella pneumoniae [5]) | MIC (Acinetobacter baumannii [32])
4 passages: Activity (Pseudomonas aeruginosa [46])
2 passages: Activity (Klebsiella pneumoniae [45])
1 passages: Activity (Acinetobacter baumannii [42])
9 passages: Activity (Enterobacter cloacae [44])
1 µg/mL: MIC50 (Citrobacter freundii) | MIC90 (Klebsiella oxytoca [4]) | MIC50 (Klebsiella pneumoniae [5]) | MIC (Klebsiella pneumoniae [24]) | MIC (Enterobacter cloacae [38]) | MIC (Escherichia coli [39]) | MIC (Pseudomonas aeruginosa [9]) | MIC (Pseudomonas aeruginosa [13]) | MIC (Pseudomonas aeruginosa [15]) | MIC (Pseudomonas aeruginosa [16]) | MIC (Pseudomonas aeruginosa [17]) | MIC (Serratia marcescens [50]) | MIC (Pseudomonas aeruginosa [52])
0.5 µg/mL: MIC90 (Escherichia coli [3]) | MIC (Escherichia coli [21]) | MIC (Klebsiella pneumoniae [22]) | MIC (Klebsiella oxytoca [25])
3 passages: Activity (Enterobacter cloacae [43])
17 passages: Activity (Acinetobacter junii)
2 µg/mL: MIC50 (Klebsiella aerogenes) | MIC90 (Citrobacter freundii) | MIC50 (Enterobacter cloacae [2]) | MIC50 (Serratia marcescens [6]) | MIC (Pseudomonas aeruginosa [26]) | MIC (Pseudomonas aeruginosa [27]) | MIC (Pseudomonas aeruginosa [11]) | MIC (Pseudomonas aeruginosa [14]) | MIC (Pseudomonas aeruginosa [18])
32 µg/mL: MIC90 (Acinetobacter sp.) | MIC50 (Burkholderia sp.) | MIC (Escherichia coli [20]) | MIC (Pseudomonas aeruginosa [10])

Reference: ChEMBL document CHEMBL1255477, “In vitro properties of BAL30072, a novel siderophore sulfactam with activity against multiresistant gram-negative bacilli” (Antimicrob Agents Chemother, 2010)
